Columns and labels:
[1] = 101 kPa, Liquid
[2] = wn = mass fraction of the nth substance listed; details: 101 kPa, Liquid

CC#N [acetonitrile]
[1]
Details	mass density [kg/m3]	speed of sound [m/s]
288.15 K	787.376	1319.1
293.15 K	782.007	1299
298.15 K	776.609	1278.8
303.15 K	771.183	1258.5
308.15 K	765.725	1238.4

CCC[n+]1ccn(C)c1.[Br-] [1-methyl-3-propylimidazolium bromide] + C[S+](C)[O-]
[2]
Details	mass density, 288.15 K [kg/m3]	mass density, 293.15 K [kg/m3]	mass density, 298.15 K [kg/m3]	mass density, 303.15 K [kg/m3]	mass density, 308.15 K [kg/m3]	speed of sound, 288.15 K [m/s]	speed of sound, 293.15 K [m/s]	speed of sound, 298.15 K [m/s]	speed of sound, 303.15 K [m/s]	speed of sound, 308.15 K [m/s]
w1 = 0.0077	1107.07	1102.06	1097.05	1092.04	1087.03	1520.9	1504.2	1487.3	1470.4	1453.6
w1 = 0.0102	1107.62	1102.61	1097.6	1092.6	1087.6	1521.5	1504.7	1487.8	1470.9	1454.2
w1 = 0.012	1108.05	1103.04	1098.04	1093.03	1088.03	1521.9	1505.2	1488.3	1471.4	1454.7
w1 = 0.0159	1108.91	1103.91	1098.91	1093.92	1088.93	1523	1506	1489.2	1472.3	1455.7
w1 = 0.0203	1109.88	1104.88	1099.89	1094.91	1089.93	1523.8	1507	1490.2	1473.4	1456.7
w1 = 0.0252	1110.97	1105.98	1100.99	1096.02	1091.04	1524.8	1507.8	1491	1474.2	1457.6
w1 = 0.0297	1111.95	1106.98	1102	1097.03	1092.07	1525.8	1509.1	1492.3	1475.5	1458.9
w1 = 0.0356	1113.27	1108.3	1103.33	1098.37	1093.42	1527	1510.4	1493.6	1476.9	1460.3
w1 = 0.0423	1114.74	1109.78	1104.82	1099.87	1094.93	1528.5	1511.6	1494.9	1478.2	1461.7
w1 = 0.0502	1116.49	1111.55	1106.6	1101.67	1096.73	1530.2	1513.5	1496.9	1480.2	1463.6
w1 = 0.0599	1118.62	1113.69	1108.76	1103.84	1098.93	1532.1	1515.3	1498.7	1482.1	1465.7
w1 = 1	1323.47	1319.84	1316.22	1312.6	1308.97	1699.3	1685	1672	1659.9	1648.3

CN(C)C=O [dimethylformamide] + CCC[n+]1ccn(C)c1.[Br-]
[2], w2 = 0
Details	mass density [kg/m3]	speed of sound [m/s]
288.15 K	953.442	1496.6
293.15 K	948.685	1477.3
298.15 K	943.917	1457.8
303.15 K	939.142	1438.4
308.15 K	934.357	1419

C[S+](C)[O-] [dimethyl sulfoxide]
[1]
Details	mass density [kg/m3]	speed of sound [m/s]
288.15 K	1105.34	1519.1
293.15 K	1100.31	1502.2
298.15 K	1095.28	1485.2
303.15 K	1090.25	1468.3
308.15 K	1085.23	1451.5

CC#N [acetonitrile] + CCC[n+]1ccn(C)c1.[Br-]
[2], w2 = 0
Details	mass density [kg/m3]	speed of sound [m/s]
288.15 K	787.376	1319.1
293.15 K	782.007	1299
298.15 K	776.609	1278.8
303.15 K	771.183	1258.5
308.15 K	765.725	1238.4

CCC[n+]1ccn(C)c1.[Br-] [1-methyl-3-propylimidazolium bromide]
[1]
Details	mass density [kg/m3]	speed of sound [m/s]
288.15 K	1323.47	1699.3
293.15 K	1319.84	1685
298.15 K	1316.22	1672
303.15 K	1312.6	1659.9
308.15 K	1308.97	1648.3

C[S+](C)[O-] [dimethyl sulfoxide] + CCC[n+]1ccn(C)c1.[Br-]
[2], w2 = 0
Details	mass density [kg/m3]	speed of sound [m/s]
288.15 K	1105.34	1519.1
293.15 K	1100.31	1502.2
298.15 K	1095.28	1485.2
303.15 K	1090.25	1468.3
308.15 K	1085.23	1451.5

CN(C)C=O [dimethylformamide]
[1]
Details	mass density [kg/m3]	speed of sound [m/s]
288.15 K	953.442	1496.6
293.15 K	948.685	1477.3
298.15 K	943.917	1457.8
303.15 K	939.142	1438.4
308.15 K	934.357	1419
